Values after ≈ are worked out from the molar mass of the structure shown. Active and inactive are the calls of the source. The calls are words filed in the database; no cut-off is given here.
Assays:
[1] = system: Staphylococcus epidermidis; assay: Antibacterial activity against methicillin-sensitive dfrC, dfrA-positive and dfrD-negative Staphylococcus epidermidis; format: functional
[2] = Cmax in NMRI mouse blood at 25 mg/kg administered through oral gavage measured after 7 hrs; format: ADME, organism-based; design: dose 25 mg/kg, route oral
[3] = system: Streptococcus pneumoniae; assay: Antibacterial activity against Streptococcus pneumoniae in presence of 250 ug/ml thymidine; format: functional
[4] = system: Staphylococcus epidermidis; assay: Antibacterial activity against methicillin, vancomycin, trimethoprim-sensitive Staphylococcus epidermidis ATCC 14990 harboring dfrC gene; format: functional
[5] = Oral bioavailability in NMRI mouse; format: ADME, organism-based; settings: in vivo
[6] = system: Staphylococcus epidermidis; assay: Antibacterial activity against methicillin-sensitive dfrA, dfrD-negative Staphylococcus epidermidis harboring F98Y mutation in dfrC gene; format: functional
[7] = system: Staphylococcus aureus; assay: Antibacterial activity against trimethoprim-sensitive Staphylococcus aureus ATCC 29213 infected in NMRI mouse model of septicemia; format: functional
[8] = system: Haemophilus influenzae; assay: Antibacterial activity against Haemophilus influenzae in presence of 50 ug/ml thymidine
[9] = Genotoxicity in Salmonella enterica serovar Typhimurium assessed as increase in number of bacterial revertant colonies by Ames test; format: toxicity; settings: salmonella enterica subsp. enterica serovar typhimurium
[10] = system: Haemophilus influenzae; assay: Antibacterial activity against Haemophilus influenzae in presence of 250 ug/ml thymidine; format: functional
[11] = system: Mus musculus; assay: Hepatotoxicity in NMRI mouse assessed as increase in liver weight at 400 mg/kg administered through oral gavage for 10 days; format: toxicity, organism-based; design: dose 400 mg/kg, route oral; settings: in vivo, 240 h
[12] = system: Staphylococcus aureus; assay: Antibacterial activity against vancomycin, trimethoprim, methicillin-resistant Staphylococcus aureus VRS1 harboring dfrA and dfrB genes; format: functional
[13] = system: Staphylococcus aureus; assay: Antibacterial activity against methicillin-resistant dfrB, dfrG-positive and dfrA-negative Staphylococcus aureus; format: functional
[14] = system: Staphylococcus aureus; assay: Antibacterial activity against methicillin-resistant dfrB, dfrA-positive and dfrA within SCCmec-N1, dfrG-negative Staphylococcus aureus; format: functional
[15] = system: Staphylococcus aureus; assay: Antibacterial activity against trimethoprim-resistant Staphylococcus aureus BAS003908; format: functional
[16] = Tmax in NMRI mouse blood at 25 mg/kg administered through oral gavage measured after 7 hrs; format: ADME, organism-based; design: dose 25 mg/kg, route oral
[17] = system: Enterococcus faecalis; assay: Antibacterial activity against vancomycin-sensitive folA, dfrF-negative Enterococcus faecalis harboring A5T, K88N, F102Y mutation in dfrE gene; format: functional
[18] = system: Staphylococcus epidermidis; assay: Antibacterial activity against methicillin-sensitive dfrC-positive and dfrA, dfrD-negative Staphylococcus epidermidis; format: functional
[19] = system: Staphylococcus aureus; assay: Antibacterial activity against vancomycin, trimethoprim-sensitive and methicillin-resistant Staphylococcus aureus ATCC 43300 harboring dfrB gene; format: functional
[20] = system: Staphylococcus aureus; assay: Antibacterial activity against trimethoprim-sensitive Staphylococcus aureus ATCC 29213 infected in NMRI mouse model of septicemia assessed as succumbed to infections at 1.6 mg/kg, iv; format: functional, organism-based; design: dose 1.6 mg/kg
[21] = system: Enterococcus faecalis; assay: Antibacterial activity against Enterococcus faecalis in presence of 250 ug/ml thymidine; format: functional
[22] = system: HeLa; assay: Cytotoxicity against human HeLa cells; format: cell-based
[23] = system: Enterococcus faecium; assay: Antibacterial activity against Enterococcus faecium in presence of 250 ug/ml thymidine; format: functional
[24] = Inhibition of trimethoprim-sensitive Staphylococcus aureus DfrB type dihydrofolate reductase
[25] = system: Staphylococcus aureus; assay: Antibacterial activity against trimethoprim-sensitive Staphylococcus aureus ATCC 29213; format: functional
[26] = system: Mycobacterium avium; assay: Antibacterial activity against Mycobacterium avium assessed as inhibition of bacterial growth at <=4 ug/ml; format: functional; design: scale not given: the % may be the effect or the level left
[27] = system: Enterococcus faecium; assay: Antibacterial activity against vancomycin-resistant dfrE, dfrF-negative and folA-positive Enterococcus faecium; format: functional
[28] = system: Mus musculus; assay: Hepatotoxicity in NMRI mouse assessed as increase in liver weight at 400 mg/kg administered through oral gavage for 5 days; format: toxicity, organism-based; design: dose 400 mg/kg, route oral; settings: in vivo, 120 h
[29] = system: Mus musculus; assay: Hepatotoxicity in NMRI mouse assessed as single-cell necrosis at 400 mg/kg administered through oral gavage for 10 days; format: toxicity, organism-based; design: dose 400 mg/kg, route oral; settings: in vivo, 240 h
[30] = system: Streptococcus pneumoniae; assay: Antibacterial activity against Streptococcus pneumoniae
[31] = system: Staphylococcus epidermidis; assay: Antibacterial activity against methicillin-resistant dfrC, dfrA-positive and dfrA within SCCmec-N1, dfrD-negative Staphylococcus epidermidis; format: functional
[32] = system: Staphylococcus aureus; assay: Antibacterial activity against methicillin-resistant dfrA within SCCmec-N1, dfrA and dfrG -negative Staphylococcus aureus harboring F98Y mutation in dfrB gene; format: functional
[33] = system: Mus musculus; assay: Hepatotoxicity in NMRI mouse assessed as inflammatory infiltrates at 400 mg/kg administered through oral gavage for 5 days; format: toxicity, organism-based; design: dose 400 mg/kg, route oral; settings: in vivo, 120 h
[34] = system: Staphylococcus aureus; assay: Antibacterial activity against trimethoprim-resistant Staphylococcus aureus BAS003908 infected in NMRI mouse model of septicemia; format: functional
[35] = system: Mus musculus; assay: Hepatotoxicity in NMRI mouse assessed as increase in mitosis at 400 mg/kg administered through oral gavage for 5 days; format: toxicity, organism-based; design: dose 400 mg/kg, route oral; settings: in vivo, 120 h
[36] = system: Staphylococcus aureus; assay: Antibacterial activity against trimethoprim-sensitive Staphylococcus aureus ATCC 29213 infected in NMRI mouse model of septicemia assessed as complete protection from infections at 3.1 mg/kg, iv; format: functional, organism-based; design: dose 3.1 mg/kg
[37] = system: Staphylococcus aureus; assay: Antibacterial activity against methicillin, vancomycin, trimethoprim-sensitive Staphylococcus aureus ATCC 29213 harboring dfrB gene; format: functional
[38] = target: Dihydrofolate reductase (Staphylococcus aureus, UniProt P0A017, F99Y); assay: Inhibition of trimethoprim-resistant Staphylococcus aureus DfrB type dihydrofolate reductase F98Y mutant
[39] = system: Mus musculus; assay: Hepatotoxicity in NMRI mouse assessed as single-cell necrosis at 400 mg/kg administered through oral gavage for 5 days; format: toxicity, organism-based; design: dose 400 mg/kg, route oral; settings: in vivo, 120 h
[40] = Inhibition of trimethoprim-resistant Staphylococcus aureus Type S1 dihydrofolate reductase
[41] = system: Mus musculus; assay: Hepatotoxicity in NMRI mouse assessed as increase in mitosis at 400 mg/kg administered through oral gavage for 10 days; format: toxicity, organism-based; design: dose 400 mg/kg, route oral; settings: in vivo, 240 h
[42] = system: Streptococcus pneumoniae; assay: Antibacterial activity against Streptococcus pneumoniae in presence of 50 ug/ml thymidine; format: functional
[43] = system: Enterococcus faecium; assay: Antibacterial activity against Enterococcus faecium; format: functional
[44] = system: Enterococcus faecalis; assay: Antibacterial activity against vancomycin-sensitive dfrE, dfrF-positive and folA-negative Enterococcus faecalis; format: functional
[45] = system: Enterococcus faecalis; assay: Antibacterial activity against Enterococcus faecalis in presence of 50 ug/ml thymidine; format: functional
[46] = system: Haemophilus influenzae; assay: Antibacterial activity against Haemophilus influenzae; format: functional
[47] = system: Staphylococcus aureus; assay: Antibacterial activity against methicillin-sensitive dfrB-positive abd dfrA, dfrG-negative Staphylococcus aureus; format: functional
[48] = system: Staphylococcus epidermidis; assay: Antibacterial activity against methicillin, vancomycin-sensitive and trimethoprim-resistant Staphylococcus epidermidis BAS000635 harboring dfrC and dfrA genes; format: functional
[49] = system: Mus musculus; assay: Hepatotoxicity in NMRI mouse assessed as inflammatory infiltrates at 400 mg/kg administered through oral gavage for 10 days; format: toxicity, organism-based; design: dose 400 mg/kg, route oral; settings: in vivo, 240 h
[50] = system: Mus musculus; assay: Toxicity in po dosed NMRI mouse; format: organism-based; settings: in vivo
[51] = system: Enterococcus faecium; assay: Antibacterial activity against vancomycin-sensitive dfrE, dfrF-negative and folA-positive Enterococcus faecium; format: functional
[52] = system: Enterococcus faecium; assay: Antibacterial activity against Enterococcus faecium in presence of 50 ug/ml thymidine; format: functional
[53] = system: Enterococcus faecalis; assay: Antibacterial activity against Enterococcus faecalis; format: functional
[54] = AUC (0 to t) in NMRI mouse blood at 25 mg/kg administered through oral gavage after 7 hrs; format: ADME, organism-based; design: time < 7 hr, dose 25 mg/kg, route oral

## COc1ncc(C2c3ccccc3C=NN2C(=O)/C=C/c2cc(Cc3cnc(N)nc3N)cc(OC)c2OC)cn1 (stereo not given)
[1]
  MIC: 0.5 µg/mL (≈ 0.905 µM)
[2]
  Cmax: 3240 ng/mL
[3]
  MIC: ≥ 128 µg/mL
[4]
  MIC: 0.125 µg/mL (≈ 0.226 µM)
[5]
  bioavailability: 25%
[6]
  MIC: 0.5 µg/mL (≈ 0.905 µM)
[7]
  ED50: 1.6 mg/kg
[8]
  MIC: 64 µg/mL
[9]
  Activity: Non-toxic
[10]
  MIC: 32 µg/mL
[11]
  Activity: < 10%
[12]
  MIC: 4 µg/mL (≈ 7.24 µM)
[13]
  MIC: 32 µg/mL (≈ 57.9 µM)
[14]
  MIC: 1 µg/mL (≈ 1.81 µM)
[14]; Staphylococcus aureus, read-out: MIC
  MIC: 1 µg/mL (≈ 1.81 µM)
[15]
  MIC: 0.5 µg/mL (≈ 0.905 µM)
[16]
  Tmax: 30 min
[17]
  MIC: 0.5 µg/mL (≈ 0.905 µM)
[18]
  MIC: ≤ 0.25 µg/mL
[19]
  MIC: 0.25 µg/mL (≈ 0.452 µM)
[20]
  Activity: inactive
[21]
  MIC: 1 µg/mL
[22]
  IC50: 12 µM
[23]
  MIC: > 128 µg/mL
[24]
  IC50: 0.0052 µM
[25]
  MIC: < 0.25 µg/mL
[26]
  Activity: 77%
[27]
  MIC: 2 µg/mL (≈ 3.62 µM)
[28]
  Activity: < 10%
[29]
  Activity: < 10%
[30]
  MIC: 64 µg/mL (≈ 116 µM)
[31]
  MIC: 0.5 µg/mL (≈ 0.905 µM)
[32]
  MIC: 0.5 µg/mL (≈ 0.905 µM)
[33]
  Activity: < 10%
[34]
  ED50: 3.1 mg/kg
[35]
  Activity: < 10%
[36]
  Activity: Active
[37]
  MIC: 0.5 µg/mL (≈ 0.905 µM)
[38]
  IC50: 0.0226 µM
[39]
  Activity: < 10%
[40]
  IC50: 0.121 µM
[41]
  Activity: < 10%
[42]
  MIC: 32 µg/mL
[43]
  MIC: 1 µg/mL (≈ 1.81 µM)
[44]
  MIC: > 128 µg/mL
[45]
  MIC: ≤ 0.25 µg/mL
[46]
  MIC: > 128 µg/mL
[47]
  MIC: ≤ 0.25 µg/mL
[48]
  MIC: 4 µg/mL (≈ 7.24 µM)
[49]
  Activity: < 10%
[50]
  Activity: 400 mg/kg
[51]
  MIC: ≤ 0.25 µg/mL
[52]
  MIC: ≥ 128 µg/mL
[53]
  MIC: ≤ 0.25 µg/mL
[54]
  AUC(0-t) at 7 h: 10600 ng·h/mL
